Experimental data as given in patent publication US20230250096A1, “SUBSTITUTED PHENYL-1H-PYRROLO[2,3-c] PYRIDINE DERIVATIVES” (Janssen Pharmaceutica NV, priority 2021, published 2023).

Columns and labels:
[1] = tested on: MEIS1 mRNA expression; experiment: MEIS1 mRNA expression assay (Quantigene Singleplex) in MOLM14 cells; format: cell-based, human; conditions: 48 hours incubation
Summary of the method: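 MOLM14 cells, 3,750/well, exposed to increasing compound concentrations for 48 h. MEIS1 mRNA measured by QuantiGene Singleplex branched-DNA hybridization (lysis 45 min, hybridization 18–22 h, both 55 °C), normalized to RPL28. IC50 fitted to background-corrected fold change versus DMSO.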

[2] = molecular target: T1, menin/MLL (terbium chelate-labeled menin, FITC-MBM1 peptide) (Homo sapiens, UniProt O00255, T541A); experiment: Menin/MLL homogenous time-resolved fluorescence (HTRF) assay; format: binding; conditions: 30 min incubation
T1 construct: Menin (a.a 1-610-6xhis tag, 2.3 mg/mL in 20 mM Hepes)
T1 sequence (O00255 with tags, fused parts or gaps T541A): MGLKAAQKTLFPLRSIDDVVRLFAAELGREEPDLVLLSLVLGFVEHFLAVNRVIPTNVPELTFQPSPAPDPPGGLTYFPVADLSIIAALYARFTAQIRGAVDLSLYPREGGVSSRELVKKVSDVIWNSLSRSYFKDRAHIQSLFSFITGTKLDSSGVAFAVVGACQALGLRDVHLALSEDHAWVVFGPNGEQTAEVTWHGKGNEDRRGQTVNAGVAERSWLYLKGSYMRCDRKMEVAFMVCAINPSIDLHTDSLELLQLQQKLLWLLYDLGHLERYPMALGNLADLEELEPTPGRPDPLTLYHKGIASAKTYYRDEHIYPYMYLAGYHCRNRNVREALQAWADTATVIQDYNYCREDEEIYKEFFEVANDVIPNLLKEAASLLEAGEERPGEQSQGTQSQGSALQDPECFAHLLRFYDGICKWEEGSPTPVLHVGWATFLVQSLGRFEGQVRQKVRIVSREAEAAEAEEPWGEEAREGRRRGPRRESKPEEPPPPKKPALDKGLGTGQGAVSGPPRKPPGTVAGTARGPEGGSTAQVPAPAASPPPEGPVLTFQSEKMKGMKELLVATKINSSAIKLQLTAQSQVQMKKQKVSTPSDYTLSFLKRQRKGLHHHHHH
Summary of the method: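 Terbium-labeled menin (a.a. 1-610, His-tagged; […]) pre-incubated 30 min with compound, then 75 nM FITC-MBM1 peptide added for 15 min at ambient temperature in Tris pH 7.5 buffer, 0.5% DMSO. HTRF 520/490 nm ratio read; IC50 from 11-point four-fold titrations, typically from 10 μM.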

Compound | IC50 ([1]; Homo sapiens, MOLM-14, 48 h) | IC50 [2] | IC50 [1]
CC(=O)N1CCC([C@H](C)N2CC[C@@H](Cc3cn(-c4ccc(F)cc4[S@](=N)(=O)C(C)C)c4cncc(C)c34)C2)CC1 (single isomer, unassigned) [Compound 230b] | > 1000 nM | 5.45 nM | –
CC(=O)N1CCC([C@@H](C)N2CC[C@@H](Cc3cn(-c4ccc(F)cc4[S@@](=N)(=O)C(C)C)c4cncc(C)c34)C2)CC1 (single isomer, unassigned) [Compound 231a] | 52 nM | 0.311 nM | –
CC(=O)N1CCC([C@H](C)N2CC[C@@H](Cc3cn(-c4ccc(F)cc4[S@@](=N)(=O)C(C)C)c4cncc(C)c34)C2)CC1 (single isomer, unassigned) [Compound 231b] | > 1000 nM | 6.94 nM | –
CC(=O)N1CCC([C@@H](C)N2CC[C@H](Cc3cn(-c4ccc(F)cc4[S@](=N)(=O)C(C)C)c4cncc(C)c34)C2)CC1 (single isomer, unassigned) [Compound 232a] | ~448 nM | 0.624 nM | –
CC(=O)N1CCC([C@H](C)N2CC[C@H](Cc3cn(-c4ccc(F)cc4[S@](=N)(=O)C(C)C)c4cncc(C)c34)C2)CC1 (single isomer, unassigned) [Compound 232b] | > 1000 nM | 4.04 nM | –
CC(=O)N1CCC([C@@H](C)N2CC[C@H](Cc3cn(-c4ccc(F)cc4[S@@](=N)(=O)C(C)C)c4cncc(C)c34)C2)CC1 (single isomer, unassigned) [Compound 233a] | 247 nM | 0.171 nM | –
CC(=O)N1CCC([C@H](C)N2CC[C@H](Cc3cn(-c4ccc(F)cc4[S@@](=N)(=O)C(C)C)c4cncc(C)c34)C2)CC1 (single isomer, unassigned) [Compound 233b] | > 1000 nM | 2.24 nM | –
Cc1cncc2c1c(C[C@@H]1CCN([C@@H](CN(C)C)C3CCOCC3)C1)cn2-c1ccc(F)cc1C(=O)N(C)C(C)C (single isomer, unassigned) [Compound 240a] | 291 nM | 0.407 nM | –
Cc1cncc2c1c(C[C@@H]1CCN([C@H](CN(C)C)C3CCOCC3)C1)cn2-c1ccc(F)cc1C(=O)N(C)C(C)C (single isomer, unassigned) [Compound 240b] | 38 nM | 0.151 nM | –
CCC(C1CCN(C(C)=O)CC1)N1CC[C@@H](Cc2cn(-c3ccc(F)cc3C(=O)N(C)C(C)C)c3cncc(C)c23)C1 (single isomer, unassigned) [Compound 246] | – | 0.057 nM | 16 nM
CCC(C1CCN(C(C)=O)CC1)N1CC[C@@H](Cc2cn(-c3ccc(F)cc3C(=O)N(C)C(C)C)c3cncc(C)c23)C1 (single isomer, unassigned) [Compound 247] | – | 0.179 nM | 116 nM
COCC[C@H](C1CCOCC1)N1CC[C@@H](Cc2cn(-c3ccc(F)cc3C(=O)N(C)C(C)C)c3cncc(C)c23)C1 (single isomer, unassigned) [Compound 252a] | 69 nM | 0.341 nM | –
COCC[C@@H](C1CCOCC1)N1CC[C@@H](Cc2cn(-c3ccc(F)cc3C(=O)N(C)C(C)C)c3cncc(C)c23)C1 (single isomer, unassigned) [Compound 252b] | 315 nM | 0.25 nM | –
Cc1cncc2c1c(C[C@@H]1CCN([C@H](CCO)C3CCOCC3)C1)cn2-c1ccc(F)cc1C(=O)N(C)C(C)C (single isomer, unassigned) [Compound 253a] | ~540 nM | 1.47 nM | –
Cc1cncc2c1c(C[C@@H]1CCN([C@@H](CCO)C3CCOCC3)C1)cn2-c1ccc(F)cc1C(=O)N(C)C(C)C (single isomer, unassigned) [Compound 253b] | > 1000 nM | 1.73 nM | –
CC(=O)N1CCC(N2CC(Cc3cn(-c4ccc(F)cc4C(=O)N(C)C(C)C)c4cncc(C)c34)C2)C[C@H]1C (single isomer, unassigned) [Compound 292b] | ~586 nM | 0.562 nM | –
CC(=O)N1CCC(N2CC(Cc3cn(-c4ccc(F)cc4C(=O)N(C)C(C)C)c4cncc(C)c34)C2)C[C@@H]1C (single isomer, unassigned) [Compound 293a] | 148 nM | 0.459 nM | –
CC(=O)N1CCC(N2CC(Cc3cn(-c4ccc(F)cc4C(=O)N(C)C(C)C)c4cncc(C)c34)C2)C[C@@H]1C (single isomer, unassigned) [Compound 293b] | – | 0.152 nM | 259 nM
Cc1cncc2c1c(CC1CN([C@H]3CCN4C(=O)CCC4C3)C1)cn2-c1ccc(F)cc1C(=O)N(C)C(C)C (single isomer, unassigned) [Compound 309b] | > 1000 nM | 0.111 nM | –
